In ChEMBL document CHEMBL1833972 (Bioorg Med Chem Lett, 2011):
Converted amounts (≈) assume the structure as drawn.

Key:
[1] = Solubility of the compound; assay type: physicochemical
[2] = Lipophilicity, log D of the compound; assay type: physicochemical; conditions: octanol/water
in vitro [3] = conditions: rat, liver microsomes
in vitro [4] = conditions: human, liver microsomes
in vitro [5] = conditions: rat, cytosol
[6] = Thermodynamic solubility of compound at physiological pH; assay type: physicochemical; conditions: read-out: Therm_solubility

## CN1CCN(CC2CCCN2c2cc(Cn3c(=O)[nH]c4c(N)nc(C(F)(F)F)cc43)ccn2)CC1 (stereo unspecified)
[1]
  solubility: soluble

## CN(C)CCN1CCN(c2ccc(Cn3c(=O)[nH]c4c(N)nc(C(F)(F)F)cc43)cn2)CC1
[2]
  logD: 0.9
In vitro [3]
  microsomal CLint: < 8.5 µL/min/mg
In vitro [4]
  microsomal CLint: < 8 µL/min/mg

## Nc1nc(C(F)(F)F)cc2c1[nH]c(=O)n2Cc1ccc(OCCN2CCCC2)nc1
[2]
  logD: 1.2
[1]
  solubility: soluble
In vitro [3]
  microsomal CLint: 9 µL/min/mg
In vitro [4]
  microsomal CLint: 10 µL/min/mg

## CN(C)CCN(C)c1ccc(Cn2c(=O)[nH]c3c(N)nc(C(F)(F)F)cc32)cn1
[2]
  logD: 1.2
In vitro [3]
  microsomal CLint: 11 µL/min/mg
In vitro [4]
  microsomal CLint: 16 µL/min/mg

## COCCCN1CCN(c2ncccc2Cn2c(=O)[nH]c3c(N)nc(C(F)(F)F)cc32)CC1
[1]
  solubility: soluble

## Nc1nc(C(F)(F)F)cc2c1[nH]c(=O)n2Cc1ccc(NCCO)nc1
In vitro [5]
  half-life: 3.27 h
[2]
  logD: 1.6
In vitro [3]
  microsomal CLint: < 8.5 µL/min/mg
In vitro [4]
  microsomal CLint: < 8 µL/min/mg

## CN1CCN(CC2CCCN2c2ncccc2Cn2c(=O)[nH]c3c(N)nc(C(F)(F)F)cc32)CC1 (stereo unspecified)
[1]
  solubility: soluble

## Nc1nc(C(F)(F)F)cc2c1[nH]c(=O)n2Cc1ccc(NCCN2CCCC2)nc1
[2]
  logD: 0.8
In vitro [3]
  microsomal CLint: < 8.5 µL/min/mg
In vitro [4]
  microsomal CLint: 8.5 µL/min/mg

## COCCNc1ncccc1Cn1c(=O)[nH]c2c(N)nc(C(F)(F)F)cc21
[1]
  solubility: soluble

## Nc1nc(C(F)(F)F)cc2c1[nH]c(=O)n2Cc1ccnc(OCCN2CCCC2)c1
[1]
  solubility: soluble

## CCN(CC)CCN(C)c1ccc(Cn2c(=O)[nH]c3c(N)nc(C(F)(F)F)cc32)cn1
[2]
  logD: 1.3
In vitro [3]
  microsomal CLint: 11 µL/min/mg
In vitro [4]
  microsomal CLint: 24 µL/min/mg

## Nc1nc(C(F)(F)F)cc2c1[nH]c(=O)n2Cc1ccnc(N2CCC[C@H]2CN2CCCC2)c1
[1]
  solubility: soluble

## CN1CCN(CCN(C)c2ccc(Cn3c(=O)[nH]c4c(N)nc(C(F)(F)F)cc43)cn2)CC1
[2]
  logD: 1.5
In vitro [3]
  microsomal CLint: 15 µL/min/mg
In vitro [4]
  microsomal CLint: 25 µL/min/mg

## COCCCN1CCN(c2cc(Cn3c(=O)[nH]c4c(N)nc(C(F)(F)F)cc43)ccn2)CC1
[1]
  solubility: soluble

## Nc1nc(C(F)(F)F)cc2c1[nH]c(=O)n2Cc1ccc(NCCN2CCCCC2)nc1
[2]
  logD: 1.3
In vitro [3]
  microsomal CLint: 16 µL/min/mg
In vitro [4]
  microsomal CLint: 13 µL/min/mg

## COCCNc1ccc(Cn2c(=O)[nH]c3c(N)nc(C(F)(F)F)cc32)cn1
[1]
  solubility: soluble

## COCCN1CCN(c2ccc(Cn3c(=O)[nH]c4c(N)nc(C(F)(F)F)cc43)cn2)CC1
[2]
  logD: 2.3
[1]
  solubility: soluble
In vitro [3]
  microsomal CLint: 9 µL/min/mg
In vitro [4]
  microsomal CLint: 17 µL/min/mg

## Nc1nc(C(F)(F)F)cc2c1[nH]c(=O)n2Cc1cccnc1N1CCC[C@H]1CN1CCCC1
[1]
  solubility: soluble

## Nc1nc(C(F)(F)F)cc2c1[nH]c(=O)n2Cc1cccnc1OCCN1CCCC1
[1]
  solubility: soluble

## COCCCN1CCN(c2ccc(Cn3c(=O)[nH]c4c(N)nc(C(F)(F)F)cc43)cn2)CC1
[1]
  solubility: soluble

## Nc1nc(C(F)(F)F)cc2c1[nH]c(=O)n2Cc1ccc(N2CCC[C@H]2CN2CCCC2)nc1
[1]
  solubility: soluble

## CN(C)CCOc1ccc(Cn2c(=O)[nH]c3c(N)nc(C(F)(F)F)cc32)cn1
[2]
  logD: 1.2
In vitro [3]
  microsomal CLint: 24 µL/min/mg
In vitro [4]
  microsomal CLint: 22 µL/min/mg

## CN(CCN1CCCCC1)c1ccc(Cn2c(=O)[nH]c3c(N)nc(C(F)(F)F)cc32)cn1
[2]
  logD: 1.8
In vitro [3]
  microsomal CLint: 13 µL/min/mg
In vitro [4]
  microsomal CLint: 25 µL/min/mg

## Nc1nc(C(F)(F)F)cc2c1[nH]c(=O)n2Cc1ccc(NCc2ccccc2)nc1
In vitro [5]
  half-life: 4.17 h
[2]
  logD: 1.8
In vitro [3]
  microsomal CLint: 16 µL/min/mg
In vitro [4]
  microsomal CLint: < 8 µL/min/mg

## COCCNc1cc(Cn2c(=O)[nH]c3c(N)nc(C(F)(F)F)cc32)ccn1
[1]
  solubility: soluble

## CN1CCN(CC2CCCN2c2ccc(Cn3c(=O)[nH]c4c(N)nc(C(F)(F)F)cc43)cn2)CC1 (stereo unspecified)
[1]
  solubility: soluble

## COCCN1CCN(c2cc(Cn3c(=O)[nH]c4c(N)nc(C(F)(F)F)cc43)ccn2)CC1
[1]
  solubility: soluble

## CN(C)CCNc1ccc(Cn2c(=O)[nH]c3c(N)nc(C(F)(F)F)cc32)cn1
[6]
  solubility thermodynamic: 483 µg/mL (≈ 1220 µM)
In vitro [5]
  half-life: 6.17 h
[2]
  logD: 0.7
In vitro [3]
  microsomal CLint: 16 µL/min/mg
In vitro [4]
  microsomal CLint: 9 µL/min/mg

## COCCN1CCN(c2ncccc2Cn2c(=O)[nH]c3c(N)nc(C(F)(F)F)cc32)CC1
[1]
  solubility: soluble
